Laboratory results as given in patent US20250275987A1, “MODULATORS OF INTRACELLULAR CHLORIDE CONCENTRATION FOR USE IN THE TREATMENT OF COGNITIVE DECLINE” (FONDAZIONE ISTITUTO ITALIANO DI TECNOLOGIA, priority 2022, published 2025).

Tests used:
[1] = target: T1, KCC2 (Homo sapiens, UniProt Q9H2X9); experiment: Thallium influx functional assay (FluxOR Potassium ion channel assay) in HEK293T cells transfected with KCC2; format: cell-based
T1 construct: expressed in transfected cells; host or cells: HEK293T
T1 sequence (Q9H2X9 1-1139): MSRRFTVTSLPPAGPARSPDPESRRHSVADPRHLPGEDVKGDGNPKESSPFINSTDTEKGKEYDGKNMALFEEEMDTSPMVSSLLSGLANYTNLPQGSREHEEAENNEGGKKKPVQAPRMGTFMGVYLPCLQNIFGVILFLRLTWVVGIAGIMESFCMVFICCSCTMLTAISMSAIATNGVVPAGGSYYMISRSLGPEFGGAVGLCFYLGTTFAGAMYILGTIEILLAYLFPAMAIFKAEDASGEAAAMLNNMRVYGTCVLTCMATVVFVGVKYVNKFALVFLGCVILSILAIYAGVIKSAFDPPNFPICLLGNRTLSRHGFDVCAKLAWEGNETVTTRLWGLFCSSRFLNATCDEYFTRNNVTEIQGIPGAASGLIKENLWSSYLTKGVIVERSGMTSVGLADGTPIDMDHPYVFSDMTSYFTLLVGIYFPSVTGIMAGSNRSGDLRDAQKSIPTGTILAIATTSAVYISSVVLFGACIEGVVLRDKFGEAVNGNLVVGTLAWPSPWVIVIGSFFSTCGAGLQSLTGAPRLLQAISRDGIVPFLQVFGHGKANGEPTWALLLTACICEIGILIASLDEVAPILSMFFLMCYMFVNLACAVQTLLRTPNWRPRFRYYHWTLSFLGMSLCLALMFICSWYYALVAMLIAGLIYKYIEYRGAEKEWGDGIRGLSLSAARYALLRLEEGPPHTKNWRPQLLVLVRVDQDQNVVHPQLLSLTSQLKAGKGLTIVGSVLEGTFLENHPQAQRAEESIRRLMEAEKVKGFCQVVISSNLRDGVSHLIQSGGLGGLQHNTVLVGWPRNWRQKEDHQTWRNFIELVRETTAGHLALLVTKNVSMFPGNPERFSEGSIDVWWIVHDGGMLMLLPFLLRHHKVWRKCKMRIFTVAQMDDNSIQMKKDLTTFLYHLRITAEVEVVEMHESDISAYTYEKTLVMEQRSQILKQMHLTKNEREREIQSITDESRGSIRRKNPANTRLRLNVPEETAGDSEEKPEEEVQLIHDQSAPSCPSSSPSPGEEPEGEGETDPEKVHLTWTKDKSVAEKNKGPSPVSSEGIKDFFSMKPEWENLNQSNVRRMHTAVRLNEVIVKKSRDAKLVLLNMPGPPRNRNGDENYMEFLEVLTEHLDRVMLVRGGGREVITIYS
Procedure: To verify the efficacy of the compounds to inhibit KCC2 in vitro a functional assay was used (FluxOR Potassium ion channel assay, Life Technologies), which measures the influx of thallium ions (replacing potassium) which permeate into the cell through KCC2. The thallium ions inside the cell are then measured using a Thallium sensor, the fluorescence of which increases after binding with thallium. In particular, the HEK293T cells were transfected with KCC2 or with the empty plasmid (mock control cells). After two days the cells were treated with the thallium sensor and in a solution without chlorine ions. After one hour the cells were washed and treated with furosemide and DMSO as negative control, again in a solution without chlorine ions and in the presence of a sodium/potassium pump inhibitor (ouabain). After twenty minutes the plates were placed in the Tecan Spark reader. The inhibitory activity of furosemide, reported in Table 1, was measured monitoring the fluorescence after thallium (TlSO4) and chlorine (NaCl) application.

[2] = tested on: elderly mice; experiment: Object localization (OL) test of spatial memory in elderly mice; format: in vivo; conditions: 25 mg/kg i.p., vs vehicle, FIG. 3b
Excerpt: FIG. 3 illustrates the evaluation of the efficacy of furosemide (KCC2 inhibitor) to restore impaired memory in elderly mice. a) Quantification of the discrimination index of the NOR test in young (n=13) and elderly (n=10) mice (two tailed t-test, ** P<0.01). b) Quantification of the discrimination index of the OL test in mice treated with vehicle (young, n=13, elderly, n=7) or furosemide (young, n=11, elderly, n=6) (two-way ANOVA, Tukey post hoc test, * P<0.05).
To evaluate memory capacity in the elderly mice, the novel object recognition (NOR) test was conducted. This test evaluates the long-term object recognition memory by measuring the capacity of the mice to recognize a novel object compared to familiar objects. […] Subsequently, to test the ability of the non-selective KCC2 inhibitor, furosemide, to restore poor memory, the object localization (OL) test was conducted in the presence of the drug. The object localization test evaluates spatial memory by measuring the ability of the mice to recognize the new position of a familiar object. The mice were treated with furosemide (25 mg/kg i.p.) or with the vehicle.

[3] = tested on: mice C57BL/6J aged >24 months; experiment: Open field test after benzodiazepine administration; format: in vivo; conditions: elderly mice (>24 months), 2 mg/kg in saline, vs elderly vehicle or young mice treated with diazepam
Excerpt: FIG. 2 illustrates the evaluation of the effect of benzodiazepines in elderly mice which is indicative of a potentiated GABAergic transmission. a) Quantification of the immobility time during the open field test of mice treated with vehicle (young, n=7, elderly, n=6) or diazepam (young, n=7, elderly, n=7) (two-way ANOVA, Tukey post hoc test, *** P<0.001). b) Quantification of the distance travelled during the open field test by mice treated with vehicle (young, n=7, elderly, n=6) or diazepam (young, n=7, elderly, n=7) (two-way ANOVA, Tukey post hoc test, […], *** P<0.001).
In fact, benzodiazepines are positive allosteric modulators of GABAAR. Benzodiazepines are commonly used as anxiolytic drugs, but can produce anxiogenic or highly sedative effects depending on the polarity of GABAergic transmission. To test the reaction of elderly mice to benzodiazepines, mice C57BL/6J aged >24 months and 2-month old controls C57BL/6J were treated with diazepam (2 mg/kg in saline solution) or vehicle (2% DMSO in saline solution). The open field test was then carried out to evaluate locomotor activity and the level of anxiety of the mice tested. […] This is indicative of an over-sedation reaction of the diazepam in the elderly mice, which may reflect the presence of hyper-inhibitory GABAergic transmission. This evidence in accordance with the […] of KCC2 (FIG. 1b).

`NS(=O)(=O)c1cc(C(=O)O)c(NCc2ccco2)cc1Cl` [Furosemide, furosemide] was tested, and the “% KCC2 inhibition at 10 μM” value ([1]; 10 μM, HEK293T cells transfected with KCC2, thallium fluorescence) was “Inactive”, the inhibition at 50 µM ([1]; HEK-293T, 50 μM, HEK293T cells transfected with KCC2, thallium fluorescence) was 39.8 ± 1.6% and the inhibition at 100 µM ([1]; HEK-293T, 100 μM, HEK293T cells transfected with KCC2, thallium fluorescence) was 45.1 ± 6.4%. The IC50 ([1]; KCC2 inhibition in vitro) was 455 µM and the “spatial memory (discrimination index of the OL test)” value [2] was “significantly restored the poor spatial memory of the elderly mice to the level of the young mice”.

In the case of `CN1C(=O)CN=C(c2ccccc2)c2cc(Cl)ccc21` [diazepam], the “immobility time during the open field test” value ([3]; FIG. 2a) is reported as “significantly higher immobility time” and the “distance travelled during the open field test” value ([3]; FIG. 2b) is reported as “significantly lower distance travelled”.
